Test results reported in BindingDB's records for doi:10.1021/jm020335m (Abbott Laboratories, 2003).

Assays:
[1] = Inhibition of concanavalin A stimulated rat splenocyte proliferation
[2] = Inhibition of concanavalin A stimulated T-cell proliferation in human PBMCs

SMILES | EC50 [1] [nM] | EC50 [2] [nM]
C=CCC1Oc2cccc(C=C)c2-c2ccc3c(c21)C(C)=CC(C)(C)N3 (configuration not stated) [5-Allyl-2,2,4-trimethyl-10-vinyl-2,5-dihydro-1H-6-oxa-1-aza-chrysene] | 90 | > 1000
C=CCC1Oc2cccc(Cl)c2-c2ccc3c(c21)C(C)=CC(C)(C)N3 (configuration not stated) [5-Allyl-10-chloro-2,2,4-trimethyl-2,5-dihydro-1H-6-oxa-1-aza-chrysene] | > 1000 | 440
C=CCC1Oc2cccc(OC(F)F)c2-c2ccc3c(c21)C(C)=CC(C)(C)N3 (configuration not stated) [5-Allyl-10-difluoromethoxy-2,2,4-trimethyl-2,5-dihydro-1H-6-oxa-1-aza-chrysene] | 85 | 563
C=CCC1Oc2ccc(O)c(OC)c2-c2ccc3c(c21)C(C)=CC(C)(C)N3 (configuration not stated) [5-Allyl-10-methoxy-2,2,4-trimethyl-2,5-dihydro-1H-6-oxa-1-aza-chrysen-9-ol] | 78 | 145

These reach a lower EC50 [1]. Values come first.

EC50 [1] [nM] | EC50 [2] [nM] | SMILES
48 | 780 | C=CCC1Oc2cccc(OC)c2-c2ccc3c(c21)C(C)=CC(C)(C)N3 (configuration not stated) [5-Allyl-10-methoxy-2,2,4-trimethyl-2,5-dihydro-1H-6-oxa-1-aza-chrysene]
48 | 418 | C=CCC1Oc2cccc(NC)c2-c2ccc3c(c21)C(C)=CC(C)(C)N3 (configuration not stated) [(5-Allyl-2,2,4-trimethyl-2,5-dihydro-1H-6-oxa-1-aza-chrysen-10-yl)-methyl-amine]
